The values below come from PubChem BioAssay (NCI).

Structures are written as SMILES.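 Tested at 5 concentrations; 48 h exposure; 96-well plates; endpoints linearly interpolated, else capped at highest concentration. Definition used: TGI = concentration required for complete inhibition of growth.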 Bounds are passed on as bounds.

Holding throughout (test): NCI tumour cell line growth inhibition, 48 h
The subject of experiment [1] is 786-0 renal.
The test system of experiment [2] is A498 renal.
Experiment [3] has as its system ACHN renal.
The test system of experiment [4] is BT-549 breast.
For experiment [5], the system named is CAKI-1 renal.
The test system of experiment [6] is COLO 205 colon.
Experiment [7] has as its system HOP-62 NSCLC.
Experiment [8] deals with M14 melanoma.
For experiment [9], the system named is MDA-MB-231 breast.
Experiment [10] relates to MDA-N.
Experiment [11] has as its system OVCAR-4 ovarian.
Experiment [12] relates to OVCAR-8 ovarian.
In experiment [13] the test system is PC-3 prostate.
Experiment [14] concerns SF-268 CNS.
The subject of experiment [15] is SNB-75 CNS.
For experiment [16], the system named is SR leukemia.
Experiment [17] concerns SW-620 colon.
Experiment [18] has as its system UACC-257 melanoma.

With `Cc1ccnc2nc3[nH]c4ccccc4c3cc12`, the TGI in experiment [1] was 83.7 µM; in [2] it was above 100 µM; in experiment [3] it was above 100 µM; in [4], above 100 µM; in experiment [5] it was above 100 µM; in experiment [6], above 100 µM. Further, the TGI in experiment [7], in [8], in [9], in experiment [10], in experiment [11] and in [12] was above 100 µM throughout. For the same molecule, the TGI in [13] is above 100 µM; in experiment [14], above 100 µM; in [15], 85.8 µM; in experiment [16] it was above 100 µM; in [17], above 100 µM; in experiment [18], above 100 µM.
In the case of `CCCCCNC1=CC(=O)c2ccccc2C1=O`, the TGI in experiment [1] is 38.9 µM; in experiment [2], above 76.7 µM; in experiment [3], above 100 µM; in experiment [4] it was 46 µM; in experiment [5] it was 80.6 µM; in experiment [6] it was above 100 µM. Moreover, the TGI in [7] is 43.5 µM; in experiment [8], above 100 µM; in experiment [9] it was 44.3 µM; in [10] it was above 100 µM; in experiment [11] it was above 100 µM; in experiment [12], 51.8 µM. For the same molecule, the TGI in experiment [13] was above 100 µM; in experiment [14], above 77.1 µM; in experiment [15], 49.4 µM; in experiment [16], above 100 µM; in experiment [17], above 100 µM; in [18], above 100 µM.
Consider `CCCCc1ccc(N2C(=O)c3cccnc3S2(=O)=O)cc1`, for which the TGI in [1], in experiment [2], in experiment [3], in experiment [4], in [5] and in experiment [6] was above 100 µM throughout. Moreover, the TGI in experiment [7], in experiment [8], in experiment [9], in experiment [10], in experiment [11] and in experiment [12] was above 100 µM each time. In addition, the TGI in experiment [13], in [14], in experiment [15], in experiment [16], in [17] and in experiment [18] was above 100 µM throughout.
`COc1cc(C2S/C(=C/c3ccccc3)C(=O)N2c2ccc([N+](=O)[O-])cc2)cc(OC)c1OC` (centres undefined): the TGI in experiment [1], in experiment [2], in [3], in [4], in experiment [5] and in experiment [6] was above 100 µM throughout. Also, the TGI in experiment [7], in experiment [8], in [9], in experiment [10], in [11] and in [12] was above 100 µM in each case. Also, the TGI in experiment [13], in experiment [14], in [15], in experiment [16], in [17] and in experiment [18] was above 100 µM each time.
For `O=C1CCSc2c(cnc3ccccc23)N1`, the TGI in experiment [1], in experiment [2], in experiment [3], in experiment [4], in experiment [5] and in experiment [6] was above 100 µM throughout. Besides, the TGI in [7], in [8], in experiment [9], in experiment [10], in [11] and in experiment [12] was above 100 µM throughout. Also, the TGI in [13], in experiment [14], in experiment [15], in experiment [16], in experiment [17] and in experiment [18] was above 100 µM in each case.
With `CCOC(=O)Oc1cc2c(ccn2C)c2c1c1ccccc1n2C(=O)OCC`, the TGI in experiment [1], in [2], in experiment [3], in [4], in experiment [5] and in [6] was above 100 µM in each case. For the same molecule, the TGI in experiment [7], in experiment [8], in experiment [9], in experiment [10], in experiment [11] and in experiment [12] was above 100 µM in each case. Besides, the TGI in experiment [13], in experiment [14], in [15], in [16], in experiment [17] and in [18] was above 100 µM in each case.
`CN1CCC/C1=C1\C(=O)c2cccn2C1=O`: the TGI in experiment [1], in experiment [2], in experiment [3], in experiment [4], in [5] and in experiment [6] was above 100 µM in each case. Besides, the TGI in experiment [7], in [8], in [9], in [10], in experiment [11] and in [12] was above 100 µM throughout. Moreover, the TGI in [13], in [14], in experiment [15], in experiment [16], in [17] and in [18] was above 100 µM throughout.
Consider `CC(C)N1CCCOC(c2ccc([N+](=O)[O-])cc2)O1` (centres undefined), for which the TGI in experiment [1], in experiment [2], in experiment [3], in experiment [4], in experiment [5] and in experiment [6] was above 100 µM throughout. Besides, the TGI in [7], in experiment [8], in [9], in experiment [10], in experiment [11] and in experiment [12] was above 100 µM throughout. The TGI in [13], in experiment [14], in experiment [15], in [16], in experiment [17] and in experiment [18] was above 100 µM each time.
